System: Tumorart P 388 (Leukämie)
Test: P 388 leukemia survival test in mice (NCI protocol 1200)
Assay type: in vivo, Mäusen
Conditions: i.p., 9-day treatment; for Verlängerungsrate T/C: P 388 i.p. 10^6 Zellen/Maus, untreated mean survival 10 days; for Zahl der Tiere aus jeweils einer Gruppe von 6 die 30 Tage überlebten: value in brackets, group of 6
Text: Die nachfolgenden Versuche wurden durchgeführt nach Tcstvorschriften des National Canccr Institute Bethesda, Maryland 200014, veröffentlicht in "Cancer Chemotherany Renorts" Part. 3, Sept. 1972, Vol. 3, Nr. 2. Als Wirksubstanz wurde Triglycidylamin sowie 3-Chlorpropyl-diglycidylamin des vorstehenden Beisniels 4 verwendet. Die Substanz wurde als wäßrige 1 %ige Injektionslösung unmittelbar vor der Applikation frisch hergestellt.
Bei Mäusen wurde gemäß Protokoll 1200 (S. 91 c) die Tumorart P 388 (Leukämie) i.p. mit 10^6 Zellen/Maus gesetzt. Die unbehandelten Tiere hatten eine mittlere Überlebensdauer von 10 Tagen.
Mit den behandelten Testtieren, die einer 9-tägigen i.p. Behandlung mit der in Tabelle 1 angesehenen Dosis unterworfen wurden, wurde eine signifikante Verlängerung der Lebensdauer gegenüber der mittleren Überlebensdauer der nicht mit dem Wirkstoff behandelten Tiere erzielt. Die Verlängerunzstate T/C in Abhängigkeit von der Dosierung des Wirkstoffes ist in der Tabelle 1 zusammengestellt. Die Werte in Klammern bedeuten die Zahl der Tiere aus jeweils einer Gruppe von 6 die 30 Tage üherlebten.

Row | SMILES | Verlängerungsrate T/C (Dosis 0,48 mg/kg) | Verlängerungsrate T/C (Dosis 0,97 mg/kg) | Verlängerungsrate T/C (Dosis 1,87 mg/kg) | Verlängerungsrate T/C (Dosis 3,75 mg/kg) | Zahl der Tiere aus jeweils einer Gruppe von 6 die 30 Tage überlebten (Dosis 3,75 mg/kg) | Verlängerungsrate T/C (Dosis 7,50 mg/kg) | Zahl der Tiere aus jeweils einer Gruppe von 6 die 30 Tage überlebten (Dosis 7,50 mg/kg)
1 | C1OC1CN(CC1CO1)CC1CO1 (stereo not drawn) [Triglycidylamin] | 148% | 174% | 252% | 303% | 6 | – | –
2 | ClCCCN(CC1CO1)CC1CO1 (stereo not drawn) [3-Chlorpropyl-diglycidylamin] | – | – | 179% | 181% | – | 303% | 3

From patent publication EP0199247A2, “Cytostatic active medicine containing glycidyl amines” (priority 1985, dated 1986)
